The OligoGym collection
Values joined by “and” are separate entries in the source; they are usually repeats but may differ in a detail not shown here. Equal entries are not always repeated. After the bases stand the sugars from the 5' end (letter, count) and the backbone: PS all phosphorothioate, else s phosphorothioate and o phosphodiester by linkage. HELM strings list units from the 5' end as sugar, base in round brackets, then linkage (d deoxyribose, r ribose, m 2'-O-methyl, p phosphodiester). Methylation of C is not given here. [moe] = 2'-O-(2-methoxyethyl) (MOE); [cEt] = constrained ethyl (cEt); [sp] = phosphorothioate linkage; e = 2'-O-(2-methoxyethyl) (MOE); k = constrained ethyl (cEt); d = 2'-deoxy (DNA)

Tests used:
HBV = conditions: ASO
APOL1 = conditions: ASO

| Substance | target mRNA inhibition (APOL1; A431, 0.0625 µM) | target mRNA inhibition (APOL1; A431, 0.25 µM) | target mRNA inhibition (APOL1; A431, 1 µM) | target mRNA inhibition (APOL1; A431, 2 µM) | other results |
| --- | --- | --- | --- | --- | --- |
| RNA1{[cEt](T)[sp].d(T)[sp].[cEt](T)[sp].d(A)[sp].[cEt](T)[sp].d(G)[sp].d(C)[sp].d(C)[sp].d(T)[sp].d(A)[sp].d(C)[sp].d(A)[sp].d(G)[sp].d(C)[sp].[moe](C)[sp].[moe](T)}$$$$V2.0 |  |  |  |  | target mRNA inhibition (HBV; HepG2, 0.009375 µM): 12%; target mRNA inhibition (HBV; HepG2, 0.01875 µM): 14%; target mRNA inhibition (HBV; HepG2, 0.0375 µM): 32%; target mRNA inhibition (HBV; HepG2, 0.075 µM): 47%; target mRNA inhibition (HBV; HepG2, 0.15 µM): 62%; target mRNA inhibition (HBV; HepG2, 0.3 µM): 77% |
| RNA1{[moe](A)[sp].[cEt](A)[sp].[cEt](C)[sp].d(A)[sp].d(A)[sp].d(A)[sp].d(T)[sp].d(G)[sp].d(G)[sp].d(C)[sp].d(A)[sp].d(C)[sp].d(T)[sp].[cEt](A)[sp].[cEt](G)[sp].[moe](T)}$$$$V2.0 |  |  |  |  | target mRNA inhibition (HBV; HepG2, 0.07 µM): 78% and 76% |
| RNA1{[moe](A)[sp].[cEt](A)[sp].[cEt](C)[sp].d(C)[sp].d(A)[sp].d(C)[sp].d(T)[sp].d(G)[sp].d(A)[sp].d(A)[sp].d(C)[sp].d(A)[sp].d(A)[sp].[cEt](A)[sp].[cEt](T)[sp].[moe](G)}$$$$V2.0 |  |  |  |  | target mRNA inhibition (HBV; HepG2, 0.07 µM): 64% and 51% |
| RNA1{[moe](A)[sp].[cEt](A)[sp].[cEt](C)[sp].d(T)[sp].d(G)[sp].d(G)[sp].d(A)[sp].d(G)[sp].d(C)[sp].d(C)[sp].d(A)[sp].d(C)[sp].d(C)[sp].[cEt](A)[sp].[cEt](G)[sp].[moe](C)}$$$$V2.0 |  |  |  |  | target mRNA inhibition (HBV; HepG2, 0.07 µM): 67% and 68% |
| RNA1{[moe](A)[sp].[cEt](A)[sp].[cEt](G)[sp].d(C)[sp].d(G)[sp].d(A)[sp].d(A)[sp].d(G)[sp].d(T)[sp].d(G)[sp].d(C)[sp].d(A)[sp].d(C)[sp].[cEt](A)[sp].[cEt](C)[sp].[moe](G)}$$$$V2.0 |  |  |  |  | target mRNA inhibition (HBV; HepG2, 0.0092593 µM): 28%; target mRNA inhibition (HBV; HepG2, 0.0277778 µM): 57%; target mRNA inhibition (HBV; HepG2, 0.07 µM): 80% and 85%; target mRNA inhibition (HBV; HepG2, 0.0833333 µM): 80%; target mRNA inhibition (HBV; HepG2, 0.25 µM): 89% |
| RNA1{[moe](A)[sp].[cEt](A)[sp].d(G)[sp].d(C)[sp].d(G)[sp].d(A)[sp].d(A)[sp].d(G)[sp].d(T)[sp].d(G)[sp].d(C)[sp].d(A)[sp].[cEt](C)[sp].[moe](A)[sp].[cEt](C)[sp].[moe](G)}$$$$V2.0 |  |  |  |  | target mRNA inhibition (HBV; HepG2, 0.0092593 µM): 20%; target mRNA inhibition (HBV; HepG2, 0.0277778 µM): 40%; target mRNA inhibition (HBV; HepG2, 0.07 µM): 82% and 75%; target mRNA inhibition (HBV; HepG2, 0.0833333 µM): 75%; target mRNA inhibition (HBV; HepG2, 0.25 µM): 89% |
| RNA1{[moe](A)[sp].[cEt](A)[sp].d(G)[sp].d(T)[sp].d(C)[sp].d(C)[sp].d(A)[sp].d(C)[sp].d(C)[sp].d(A)[sp].d(C)[sp].d(G)[sp].[cEt](A)[sp].[moe](G)[sp].[cEt](T)[sp].[moe](C)}$$$$V2.0 |  |  |  |  | target mRNA inhibition (HBV; HepG2, 0.07 µM): 43% and 40% |
| TATTTCTTGATGTGGT (sugars kkkddddkekekdddd, PS) | 61% | 80% | 89% | 95% | target mRNA inhibition (APOL1; A431, 0.0156 µM): 17% |
| TCACATACTCTCTGGG (sugars k4 d9 k3, PS) | 24% | 62% | 77% |  |  |
| TCAGATGGGTACTTCT (sugars k2 d4 e3 k2 d5, PS) |  |  |  | 88% |  |
| TCAGATGGGTACTTCT (sugars kkddddekekeddddd, PS) | 30% | 61% | 86% | 91% | target mRNA inhibition (APOL1; A431, 0.0156 µM): 8% |
| TCAGATGGGTACTTCT (sugars kkddddkdkdkddddd, PS) |  |  |  | 88% |  |
| TCAGATGGGTACTTCT (sugars kkddddkekekkdddd, PS) |  |  |  | 62% |  |
| TCAGTCAGCAGGAGTA (sugars k4 d9 k3, PS) | 55% | 69% | 70% |  |  |
| TCCGTCAATATATTCT (sugars k2 d4 e3 k2 d5, PS) | 59% | 84% | 93% | 96% | target mRNA inhibition (APOL1; A431, 0.0156 µM): 27% |
| TCCGTCAATATATTCT (sugars kkddddekekeddddd, PS) | 61% | 86% | 96% | 97% | target mRNA inhibition (APOL1; A431, 0.0156 µM): 33%; target mRNA inhibition (APOL1; A431, 0.04 µM): 50% |
| TCCTTGCTGCACTGCC (sugars k4 d9 k3, PS) | 67% | 88% | 95% |  |  |
| TCTATTAGAGGGCTAG (sugars kdddddkekekddddd, PS) |  |  |  | 42% |  |
| TCTATTAGAGGGCTAG (sugars kddddkekekeddddd, PS) |  |  |  | 37% |  |
| TCTATTAGAGGGCTAG (sugars kkddddekekeddddd, PS) |  |  |  | 67% |  |
| TCTCATGGTACAGGAG (sugars kdddddkekekddddd, PS) |  |  |  | 61% |  |

| Substance | target mRNA inhibition (APOL1; A431, 0.0625 µM) | target mRNA inhibition (APOL1; A431, 0.25 µM) | target mRNA inhibition (APOL1; A431, 1 µM) | target mRNA inhibition (APOL1; A431, 2 µM) | other results |
| --- | --- | --- | --- | --- | --- |
| TCTGTTAGATACAAAC (sugars k4 d9 k3, PS) | 34% | 63% | 78% |  |  |
| TGAACGCAATGCTGAC (sugars k4 d9 k3, PS) | 32% | 74% | 90% |  |  |
| TGAAGATTGGCTCTGG (sugars k3 d4 k3 e1 d5, PS) |  |  |  | 61% |  |
| TGATGTGGGACTTGTT (sugars k4 d9 k3, PS) | 61% | 84% | 93% |  |  |
| TGGGAATTATGGAATT (sugars kkddddekekeddddd, PS) |  |  |  | 78% |  |
| TGGGCGAGCGATTGTC (sugars k4 d9 k3, PS) | 42% | 70% | 83% |  |  |
| TGGTCACAGTTCTTGG (sugars k4 d9 k3, PS) | 80% | 90% | 95% |  |  |
| TGGTTCAAAAGCAGCA (sugars k2 d4 e3 k2 d5, PS) | 68% | 85% | 91% | 93% | target mRNA inhibition (APOL1; A431, 0.0156 µM): 41% |
| TGTAAGTGCAACCAAT (sugars kkddddkekekkdddd, PS) |  |  |  | 43% |  |
| TGTATTTCTTGATGTG (sugars kkkddddkekeddddd, PS) |  |  |  | 71% |  |
| TGTGCTCAGCTATGGA (sugars k4 d9 k3, PS) | 41% and 55% | 70% and 74% | 88% and 87% |  |  |
| TGTTATATTTGATCCT (sugars k3 d10 k3, PS) | 67% | 90% | 98% |  |  |
| TGTTATATTTGATCCT (sugars kddddkekekeddddd, PS) |  |  |  | 51% |  |
| TGTTATATTTGATCCT (sugars kkddddkekekkdddd, PS) |  |  |  | 46% |  |
| TGTTATATTTGATCCT (sugars kkkddddkekeddddd, PS) |  |  |  | 71% |  |
| TGTTTGCATTTGGGTC (sugars k4 d9 k3, PS) | 90% and 83% | 98% and 94% | 99% and 96% |  |  |
| TTACATGCACGATCTC (sugars k3 d10 k3, PS) | 18% | 56% | 78% |  |  |
| TTATATTTGATCCTCA (sugars k2 d4 e3 k2 d5, PS) |  |  |  | 96% |  |
| TTATATTTGATCCTCA (sugars kkddddkekekddddd, PS) |  |  |  | 91% |  |
| TTATGAAATTATTGGT (sugars k2 d4 e3 k2 d5, PS) |  |  |  | 39% |  |
| TTATGAAATTATTGGT (sugars kkdddddkekeddddd, PS) |  |  |  | 63% |  |

| Substance | target mRNA inhibition (APOL1; A431, 0.0625 µM) | target mRNA inhibition (APOL1; A431, 0.25 µM) | target mRNA inhibition (APOL1; A431, 1 µM) | target mRNA inhibition (APOL1; A431, 2 µM) | other results |
| --- | --- | --- | --- | --- | --- |
| TTCTATTAGAGGGCTA (sugars k2 d4 e4 k2 d4, PS) |  |  |  | 76% |  |
| TTCTATTGGGCCTCAG (sugars k4 d9 k3, PS) | 74% | 87% | 94% |  |  |
| TTCTCATGGTACAGGA (sugars kkdddddkekeddddd, PS) |  |  |  | 78% |  |
| TTGTAAGTGCAACCAA (sugars k2 d4 e3 k2 d5, PS) |  |  |  | 83% |  |
| TTGTAAGTGCAACCAA (sugars k2 d4 e4 k2 d4, PS) |  |  |  | 70% |  |
| TTGTAAGTGCAACCAA (sugars kkdddddkekeddddd, PS) |  |  |  | 81% |  |
| TTTATACCAGTGTCTT (sugars k3 d4 k3 e1 d5, PS) |  |  |  | 80% |  |
| TTTATACCAGTGTCTT (sugars kkdddddkekeddddd, PS) |  |  |  | 84% |  |
| TTTATACCAGTGTCTT (sugars kkddddekekeddddd, PS) |  |  |  | 90% |  |
| TTTCATATTCACCCGA (sugars k4 d9 k3, PS) | 46% | 68% | 86% |  |  |
| TTTGTAAGTGCAACCA (sugars k3 d4 k3 e1 d5, PS) |  |  |  | 56% |  |
| TTTGTAAGTGCAACCA (sugars kdddddkekekddddd, PS) | 58% | 86% | 96% | 99% | target mRNA inhibition (APOL1; A431, 0.0156 µM): 24% |
| TTTGTAAGTGCAACCA (sugars kkddddekekeddddd, PS) | 59% | 83% | 96% | 97% | target mRNA inhibition (APOL1; A431, 0.0156 µM): 29% |
| TTTGTAAGTGCAACCA (sugars kkddddkekekddddd, PS) |  |  |  | 98% |  |
| TTTGTAAGTGCAACCA (sugars kkddddkekekkdddd, PS) |  |  |  | 87% |  |
| TTTGTAAGTGCAACCA (sugars kkkddddkekeddddd, PS) |  |  |  | 49% |  |
| TTTGTAAGTGCAACCA (sugars kkkddddkekekdddd, PS) |  |  |  | 63% |  |
| TTTTAGAAAGGACACG (sugars k4 d9 k3, PS) | 42% | 67% | 85% |  |  |
| TTTTCACCATAGCACG (sugars k4 d9 k3, PS) | 33% | 63% | 85% |  |  |
